Laboratory results taken from US20250019769A1, “REPURPOSING DRUGS FOR NON-SMALL CELL LUNG CANCER” (WEST VIRGINIA UNIVERSITY BOARD OF GOVERNORS ON BEHALF OF …, priority 2021, published 2025).
Where two headings read alike, the source gives them in different places.

Legend:
[1] = tested on: gene expression of CD27, PD1, CTLA4, or PDL1; assay: Pearson correlation of drug-response measurements with gene expression of ICIs in human NSCLC epithelial cell lines; settings: for correlation of EC50 with CD27 mRNA expression: p<0.05, Pearson's correlation test, NSCLC cell lines (n=79, FIG. 18B)
Text: (§1) The PRISM dataset. was obtained from the DepMap portal (https://depmap.org/portal/download/, PRISM repurposing 19Q4, accessed on 1 Apr. 2021). Carboplatin, cisplatin, docetaxel, erlotinib, etoposide, gefitinib, gemcitabine, paclitaxel (Taxol), pemetrexed, and vinorelbine were commonly used chemotherapeutic drugs in NSCLC treatment, the analysis focused on these ten regiments. Drug activity measurements, including IC50, ln(IC50), EC50, and ln(EC50), were used in the analysis. The available CCLE NSCLC cell lines were divided into three groups by the drug activity measurements: sensitive, resistant, and intermediate.
(§2) Drug activity measurements were generated in the GDSC Project. (https://www.cancerrxgene.org/downloads/bulk_download, accessed on 15 Apr. 2021). IC50 and ln(IC50) were the main metrics used in this analysis. The available CCLE NSCLC cell lines were divided into three groups by the drug activity measurements in the GDSC1/2 datasets, i.e., sensitive, resistant, and intermediate.
RStudio (version 1.4.1106), an integrated development environment for R, was used as the main tool for performing the statistical analyses. A two-tailed, unpaired Student's t-test was used to evaluate the significance of differential expression between two groups. Survival analysis and curves were generated using the Kaplan-Meier method, and log-rank tests were used to assess the difference in survival probability between different groups. The univariate and multivariate Cox regression analyses were used in the prognostic evaluation and curve generation with R packages “survival”, “survminer”, and “ggplot2”. The strength of the linear relationship between two sample groups was measured with Pearson's correlation test. Results in statistical tests were considered significant with a p-value<0.05.
Several targeted therapeutic candidates were identified with CMap.

NSCLC cells = settings: cited from earlier work
[2] = tested on: xenograft mouse model of lung cancer; settings: cited from earlier work
NSCLC [3] = settings: combination with gefitinib in NSCLC; cited from earlier work
[4] = tested on: mRNA expression of CD27, PD1, or PDL1; assay: Pearson correlation of drug concentration (PRISM, GDSC1, GDSC2) with mRNA expression of immune checkpoint genes in CCLE NSCLC cell lines; set-up: species or system human; settings: p<0.05, Pearson's correlation, datasets PRISM, CCLE NSCLC cell lines (n=117)
Text: The growth inhibitory activity of 4,518 drugs was quantified in 578 human cancer cell lines using the PRISM molecular barcoding and multiplexed screening method. The PRISM dataset is available at the Cancer Dependency Map portal (https://depmap.org/portal/download/, accessed on 1 Apr. 2021). Drug responses of 9 commonly used chemotherapeutic regimens in treating NSCLC were included: carboplatin, cisplatin, paclitaxel, docetaxel, gemcitabine, vinorelbine, etoposide, gefitinib, and erlotinib. For each drug, cell lines with IC50 or EC50 value higher than the maximum dose were defined as resistant; cell lines with IC50 or EC50 value lower than the minimum dose were defined as sensitive. The remaining cell lines were divided into groups of resistant, sensitive, or partial response by using the mean±0.5 standard deviation (SD) of the drug activity metrics, including IC50, ln(IC50), EC50, or ln(EC50) values. Cell lines with a drug activity value less than the mean−0.5 SD were defined as sensitive to the drug, and those with a drug activity value between the mean+0.5 SD and the mean−0.5 SD were defined as having a partial response to the drug. Cell lines with a drug activity value greater than the mean+0.5 SD were defined as resistant to the drug. This categorization corresponds to the RECIST 1.1 system (i.e., complete response, partial response, and stable disease/disease progression) in evaluating chemotherapeutic response in solid tumors. Drug screening data was downloaded from Genomics of Drug Sensitivity in Cancer (GDSC) Project (https://www.cancerrxgene.org/downloads/bulk_download, accessed on 15 Apr. 2021). The GDSC Project screened more than 1,000 genetically characterized human cancer cell lines with a wide range of anti-cancer therapeutic agents. Among the commonly used chemotherapeutic regimens in treating NSCLC drugs, […] were found in GDSC1, including cisplatin, docetaxel, erlotinib, etoposide, gefitinib, gemcitabine, pemetrexed, and vinorelbine; 7 were found in GDSC2, including cisplatin, docetaxel, erlotinib, gefitinib, gemcitabine, paclitaxel, and vinorelbine. For each drug, cell lines were defined as resistant, sensitive, or partial response by using the mean±0.5 SD of the IC50 values as described above. Various statistical methods can be utilized. Statistical analysis was performed using Rstudio version 1.4.1106. […] Survival analysis was performed using Kaplan-Meier analysis with the survival package in R. Log-rank tests were used to assess the difference in survival probability from different groups in Kaplan-Meier analyses. The genes in the networks were evaluated with Cox proportional hazard model and Kaplan-Meier analysis. Pearson's correlation test was used to find the relationship be-tween two variables. The multivariate Cox regression analysis was used to build the model of risk-scores. […] Pearson's correlation test was used to find the relationship between two variables. One-tailed two proportion z-test was used to compare if two proportions are the same.

[5] = tested on: human NSCLC epithelial cell lines; assay: PRISM/GDSC drug response in human NSCLC epithelial cell lines (n=135); format: cell-based; settings: average in human NSCLC epithelial cell lines (FIG. 18C)
Text: as §1, §2

[6] = tested on: advanced solid tumors including NSCLC; settings: single-agent, cited from earlier work
CCLE NSCLC cell lines = assay: PRISM drug screen, growth inhibitory activity in CCLE NSCLC cell lines; format: cell-based; settings: Homo sapiens, read-out: average IC50 or EC50 value
Text: The growth inhibitory activity of 4,518 drugs was quantified in 578 human cancer cell lines using the PRISM molecular barcoding and multiplexed screening method. The PRISM dataset is available at the Cancer Dependency Map portal (https://depmap.org/portal/download/, accessed on 1 Apr. 2021). Drug responses of 9 commonly used chemotherapeutic regimens in treating NSCLC were included: carboplatin, cisplatin, paclitaxel, docetaxel, gemcitabine, vinorelbine, etoposide, gefitinib, and erlotinib. For each drug, cell lines with IC50 or EC50 value higher than the maximum dose were defined as resistant; cell lines with IC50 or EC50 value lower than the minimum dose were defined as sensitive. The remaining cell lines were divided into groups of resistant, sensitive, or partial response by using the mean±0.5 standard deviation (SD) of the drug activity metrics, including IC50, ln(IC50), EC50, or ln(EC50) values. Cell lines with a drug activity value less than the mean−0.5 SD were defined as sensitive to the drug, and those with a drug activity value between the mean+0.5 SD and the mean−0.5 SD were defined as having a partial response to the drug. Cell lines with a drug activity value greater than the mean+0.5 SD were defined as resistant to the drug. This categorization corresponds to the RECIST 1.1 system (i.e., complete response, partial response, and stable disease/disease progression) in evaluating chemotherapeutic response in solid tumors.
The growth inhibitory activity of 4,518 drugs was quantified in 578 human cancer cell lines using the PRISM molecular barcoding and multiplexed screening method. The PRISM dataset is available at the Cancer Dependency Map portal (https://depmap.org/portal/download/, accessed on 1 Apr. 2021). Drug responses of 9 commonly used chemotherapeutic regimens in treating NSCLC were included in this study: carboplatin, cisplatin, paclitaxel, docetaxel, gemcitabine, vinorelbine, etoposide, gefitinib, and erlotinib. For each drug, cell lines with IC50 or EC50 value higher than the maximum dose were defined as resistant; cell lines with IC50 or EC50 value lower than the minimum dose were defined as sensitive. The remaining cell lines were divided into groups of resistant, sensitive, or partial response by using the mean±0.5 standard deviation (SD) of the drug activity metrics, including IC50, ln(IC50), EC50, or ln(EC50) values. Cell lines with a drug activity value less than the mean−0.5 SD were defined as sensitive to the drug, and those with a drug activity value between the mean+0.5 SD and the mean−0.5 SD were defined as having a partial response to the drug. Cell lines a drug activity value greater than the mean+0.5 SD were defined as resistant to the drug. This categorization corresponds to the RECIST 1.1 system (i.e., complete response, partial response, and stable disease/disease progression) in evaluating chemotherapeutic response in solid tumors.

[7] = tested on: FRα (FOSL1)-positive advanced solid tumors; settings: patient derived xenograft models and phase I study; cited from earlier work
NSCLC [8] = settings: stage IIIB, after chemoradiation, cited from earlier work
resected NSCLC tumors = settings: neoadjuvant; 9 of 20 resected NSCLC tumors, stages I, II, and IIIA; cited from earlier work
[9] = CCLE NSCLC cell lines, 7-gene network study (FIG. 13C)
[10] = average over CCLE NSCLC cell lines (n=117), 8 doses 0.0006 μM to 10 μM

Question: What does the source list for Cc1cnc(Nc2ccc(OCCN3CCCC3)cc2)nc1Nc1cccc(S(=O)(=O)NC(C)(C)C)c1 [TG-101348]?
Answer: association with PDL1 gene expression ([1]; human NSCLC epithelial cell lines): inhibitory association; PDL1 protein expression (NSCLC cells): reduced PDL1 protein expression; erlotinib-resistance (NSCLC cells): reversed erlotinib-resistance; radiosensitization and EMT blockade [2]: mediated radiosensitization and EMT blockade

Question: Which “effect on pro-apoptosis and anti-migration ability of gefitinib” value (NSCLC [3]) does the source give for CC(C)c1ccccc1Cc1cc(C(=O)Nc2ccc(S(=O)(=O)c3ccccc3C(C)(C)C)cc2)c(O)c(O)c1O [TW-37] here?
Answer: enhanced

Question: With C[C@H]1[C@H](NC(=O)/C(=N\OC(C)(C)C(=O)O)c2csc(N)n2)C(=O)N1S(=O)(=O)O [aztreonam] as the molecule, how does the “correlation of drug concentration [IC50, EC50, ln(IC50), or ln(EC50)] with mRNA expression of CD27, PD1, or PDL1” value [4] read?
Answer: significant negative correlation

Question: Which EC50 [5] does the source give for CO[C@@H](C(=O)N1Cc2n[nH]c(NC(=O)c3ccc(N4CCN(C)CC4)cc3)c2C1)c1ccccc1 [danusertib] here?
Answer: < 1000 nM

Question: And the IC50 [5]?
Answer: < 1000 nM

Question: What about the “correlation of EC50 with CD27 mRNA expression” value [1] of the same molecule?
Answer: significant negative correlation

Question: And the “correlation of EC50 with CD27 mRNA expression” value ([1]; listed as Danusertib)?
Answer: inhibitory association

Question: And the anti-tumor activity ([6]; common solid tumor types)?
Answer: marginal anti-tumor activity

Question: And the tolerability ([6]; phase I and phase II clinical studies)?
Answer: well tolerated

Question: For Cc1nc(Nc2ncc(C(=O)Nc3c(C)cccc3Cl)s2)cc(N2CCN(CCO)CC2)n1 [dasatinib], which IC50 (CCLE NSCLC cell lines; [9]) is on record?
Answer: ≤ 1000 nM

Question: Which IC50 (CCLE NSCLC cell lines; [10]) does the source give for CCN(CC)C(=S)SSC(=S)N(CC)CC [disulfiram] here?
Answer: < 1000 nM

Question: For COc1cccc2c1C(=O)c1c(O)c3c(c(O)c1C2=O)C[C@@](O)(C(=O)CO)C[C@@H]3O[C@H]1C[C@H](N)[C@H](O)[C@H](C)O1 [doxorubicin], which IC50 (CCLE NSCLC cell lines; [10]) is on record?
Answer: < 1000 nM

Question: With CC1CC(OC(=O)c2ccccc2O)CC(C)(C)C1 (stereo not shown) [homosalate] as the molecule, how does the IC50 (CCLE NSCLC cell lines; [9]) read?
Answer: ≤ 1000 nM

Question: With CCc1c2c(nc3ccc(OC(=O)N4CCC(N5CCCCC5)CC4)cc13)-c1cc3c(c(=O)n1C2)COC(=O)[C@]3(O)CC [irinotecan] as the molecule, how does the “correlation of drug concentration [IC50, EC50, ln(IC50), or ln(EC50)] with mRNA expression of CD27, PD1, or PDL1” value [4] read?
Answer: significant negative correlation

Question: What does the source list for C[C@]12O[C@H](C[C@]1(O)CO)n1c3ccccc3c3c4c(c5c6ccccc6n2c5c31)CNC4=O [lestaurtinib]?
Answer: IC50 (CCLE NSCLC cell lines; [9]): ≤ 1000 nM; EC50 [5]: < 1000 nM; IC50 [5]: < 1000 nM

Question: With O=C1c2c(O)ccc(O)c2C(=O)c2c(NCCNCCO)ccc(NCCNCCO)c21 [mitoxantrone] as the molecule, how does the IC50 (CCLE NSCLC cell lines; [10]) read?
Answer: < 1000 nM

Question: What about the “correlation of drug concentration [IC50, EC50, ln(IC50), or ln(EC50)] with mRNA expression of CD27, PD1, or PDL1” value [4] of the same molecule?
Answer: significant negative correlation

Question: With OC1(c2ccc(Cl)c(C(F)(F)F)c2)CCN(CCCC(c2ccc(F)cc2)c2ccc(F)cc2)CC1 [penfluridol] as the molecule, how does the IC50 (CCLE NSCLC cell lines; [9]) read?
Answer: ≤ 1000 nM

Question: Which “correlation of drug concentration [IC50, EC50, ln(IC50), or ln(EC50)] with mRNA expression of CD27, PD1, or PDL1” value [4] does the source give for COc1cc(/C=C/C(=O)N2CCC=CC2=O)cc(OC)c1OC [piperlongumine] here?
Answer: significant negative correlation

Question: With COc1ccc(C[C@H](N)C(=O)N[C@H]2[C@@H](O)[C@H](n3cnc4c(N(C)C)ncnc43)O[C@@H]2CO)cc1 [puromycin] as the molecule, how does the “correlation of drug concentration [IC50, EC50, ln(IC50), or ln(EC50)] with mRNA expression of CD27, PD1, or PDL1” value [4] read?
Answer: significant negative correlation

Question: With CC(/C=C/C(=O)NO)=C\[C@@H](C)C(=O)c1ccc(N(C)C)cc1 [trichostatin A] as the molecule, how does the “correlation of drug concentration [IC50, EC50, ln(IC50), or ln(EC50)] with mRNA expression of CD27, PD1, or PDL1” value [4] read?
Answer: significant negative correlation

Question: For MORAb-202, which antitumor response [7] is on record?
Answer: robust antitumor response

Question: Which results are given for durvalumab: anti-PD-L1?
Answer: median OS (NSCLC [8]; durvalumab arm): not reached; overall survival HR vs placebo arm (NSCLC [8]; phase III randomized trial): 0.69 (95% CI 0.55-0.86)

Question: Which “correlation of drug concentration [IC50, EC50, ln(IC50), or ln(EC50)] with mRNA expression of CD27, PD1, or PDL1” value [4] does the source give for ivermectin here?
Answer: significant negative correlation

Question: Which pathological response (resected NSCLC tumors) does the source give for nivolumab: PD-1 inhibitor here?
Answer: 45%
